# Measured values taken from US20070129344A1, “Bicyclic 6-alkylidene-penem beta-lactamase inhibitors and beta-lactam antibiotic combination: a broad spectrum antibiotic” (priority 2005, published 2007).
# Counter-ions that a name gives are not always drawn. Like-named read-outs stand apart in the source and are kept apart here.
# How the values were obtained:
# [1] = tested on: K. pneumoniae GC 7636 TEM-1 KPC-2 SHV-12; test: MIC microbroth dilution; β-lactamase class A, A (Cb'ase), A (ESBL); type: cell-based; details: K. pneumoniae GC 7636; Cefepime + 4 ug/ml Compound 1
# Experimental: (§1) The in vitro activities of the antibiotics were determined by the microbroth dilution method as recommended by the National Committee for Clinical Laboratory Standards (NCCLS). (NCCLS. 2000. Methods for Dilution Antimicrobial Susceptibility Tests for Bacteria That Grow Aerobically; Approved Standards: M7-A5, vol. 19. National Committee for Clinical Laboratory Standards, Villanova, Pa.). Mueller-Hinton II broth (MHBII)(BBL Cockeysville, Md.), was used for the testing procedure. […]. The plates were incubated for 18-22 hours at 35° C. in ambient air.
# [2] = tested on: E. coli GC 2805 (CcrA); test: MIC microbroth dilution; β-lactamase class B; type: cell-based; details: E. coli GC 2805; Cefepime + 4 ug/ml Compound 1
# Experimental: as §1
# [3] = tested on: K. oxytoca GC 7627 TEM-1 K1 KPC-2; test: MIC microbroth dilution; β-lactamase class A, A (Cb'ase); type: cell-based; details: K. oxytoca GC 7627; Cefepime + 4 ug/ml Compound 1
# Experimental: as §1
# [4] = tested on: E. coli GC 2847 (TEM-1); test: MIC microbroth dilution; β-lactamase class A; type: cell-based
# Experimental: as §1
# [5] = target: class A β-lactamase TEM-1 (Escherichia coli, UniProt P62593); test: β-Lactamase inhibition IC50 (nitrocefin, spectrophotometric); type: biochemical, E. coli; details: enzyme 4.3 nM, 10 min preincubation at 25° C.
# Experimental: β-Lactamase inhibitory activity of the penem inhibitors was determined spectrophotometrically as described by Bush et al., [Bush, K., Macalintal, C., Rasmussen, B. A., Lee, V. and Yang, Y. Antimicrobial Agents and Chemotherapy 1993, 37, 851]. Homogeneously purified class A β-lactamases TEM-1 from E. coli and Imi-1 from Enterobacter cloacae, class B enzyme CcrA from Bacteroides fragilis and class C enzyme AmpC from Enterobacter cloacae were employed in the assay. The enzyme concentrations for TEM-1, Imi-1, CcrA and AmpC were 4.3, 7.1, 1.2 and 2.1 nM, respectively. A wide range of inhibitor concentrations were prepared in 50 mM PO4, pH 7.0 to include the possible IC50 values. The substrate used to initiate the enzyme reaction was nitrocefin at 50 μg/ml in the same buffer as the inhibitor. Initially the enzyme and inhibitor (20 μl each) were preincubated for 10 minutes at 25° C. prior to the addition of 160 μl volume of nitrocefin. Initial rates of hydrolysis were monitored for 5 minutes at 495 nm using a Molecular Devices Spectra Max 250 with kinetic protocol of SoftMax Program. Readings from the Spectra Max 250 were exported and transferred to Microsoft Excel. The percent of inhibition of each inhibitor concentration was calculated based on the control enzyme activity. The inhibitor concentration that caused a 50% reduction in the enzymatic activity (IC50) was determined graphically.
# [6] = tested on: E. coli GC 2295 TEM-1 + AmpC; test: MIC microbroth dilution; β-lactamase class A, C; type: cell-based; details: E. coli GC 2295; Cefepime + 4 ug/ml Compound 1
# Experimental: as §1
# [7] = tested on: A. baumannii GC 7692 TEM-1, AmpC; test: MIC microbroth dilution; β-lactamase class A, C; type: cell-based; details: A. baumannii GC 7692; Cefepime + 4 ug/ml Compound 1
# Experimental: as §1
# [8] = tested on: A. baumannii GC 7687 AmpC; test: MIC microbroth dilution; β-lactamase class C; type: cell-based
# Experimental: as §1
# [9] = tested on: C. freundii GC 4164 Inducible AmpC; test: MIC microbroth dilution; β-lactamase class C; type: cell-based
# Experimental: as §1
# [10] = tested on: P. aeruginosa GC 1763 AmpC-inducible; test: MIC microbroth dilution; β-lactamase class C; type: cell-based
# Experimental: as §1
# [11] = tested on: E. cloacae GC 1712 AmpC-inducible; test: MIC microbroth dilution; β-lactamase class C; type: cell-based
# Experimental: as §1
# [12] = tested on: E. cloacae GC 4142 (AmpC); test: MIC microbroth dilution; β-lactamase class C; type: cell-based
# Experimental: as §1
# [13] = tested on: K. pneumoniae GC 7823 Fox 5; test: MIC microbroth dilution; β-lactamase class C; type: cell-based
# Experimental: as §1
# [14] = tested on: E. coli GC 2894 (AmpC); test: MIC microbroth dilution; β-lactamase class C; type: cell-based
# Experimental: as §1
# [15] = tested on: K. pneumoniae GC 7824 Fox 5; test: MIC microbroth dilution; β-lactamase class C; type: cell-based
# Experimental: as §1
# [16] = tested on: P. aeruginosa GC 3153 Inducible AmpC; test: MIC microbroth dilution; β-lactamase class C; type: cell-based
# Experimental: as §1
# [17] = tested on: E. cloacae GC 1475 (P99); test: MIC microbroth dilution; β-lactamase class C; type: cell-based
# Experimental: as §1
# [18] = tested on: A. baumannii GC 7684 AmpC, AmpC; test: MIC microbroth dilution; β-lactamase class C; type: cell-based
# Experimental: as §1
# [19] = tested on: E. cloacae GC 6991 (AmpC); test: MIC microbroth dilution; β-lactamase class C; type: cell-based
# Experimental: as §1
# [20] = tested on: S. marcescens PT 696 Inducible AmpC; test: MIC microbroth dilution; β-lactamase class C; type: cell-based
# Experimental: as §1
# [21] = tested on: K. pneumoniae GC 7820 Act 1; test: MIC microbroth dilution; β-lactamase class C; type: cell-based
# Experimental: as §1
# [22] = tested on: S. marcescens GC 4132 (AmpC); test: MIC microbroth dilution; β-lactamase class C; type: cell-based
# Experimental: as §1
# [23] = tested on: S. marcescens GC 4145 Inducible AmpC; test: MIC microbroth dilution; β-lactamase class C; type: cell-based
# Experimental: as §1
# [24] = tested on: P. aeruginosa ATCC 27853 AmpC-inducable; test: MIC microbroth dilution; β-lactamase class C; type: cell-based
# Experimental: as §1
# [25] = tested on: K. pneumoniae GC 7821 DHA 1; test: MIC microbroth dilution; β-lactamase class C; type: cell-based
# Experimental: as §1
# [26] = tested on: E. aerogenes 1697-MP GC 7845 AmpC; test: MIC microbroth dilution; β-lactamase class C; type: cell-based; details: E. aerogenes GC 7845
# Experimental: as §1
# [27] = Escherichia coli, Cefepime + 4 ug/ml Compound 2, read-out: MIC
# [28] = Pseudomonas aeruginosa, Cefepime + 4 ug/ml Compound 2, read-out: MIC
# [29] = Enterobacter cloacae, Cefepime + 4 ug/ml Compound 2, read-out: MIC
# [30] = Serratia marcescens, Cefepime + 4 ug/ml Compound 2, read-out: MIC
# Sequence of class A β-lactamase TEM-1 (P62593 24-286 limits assumed): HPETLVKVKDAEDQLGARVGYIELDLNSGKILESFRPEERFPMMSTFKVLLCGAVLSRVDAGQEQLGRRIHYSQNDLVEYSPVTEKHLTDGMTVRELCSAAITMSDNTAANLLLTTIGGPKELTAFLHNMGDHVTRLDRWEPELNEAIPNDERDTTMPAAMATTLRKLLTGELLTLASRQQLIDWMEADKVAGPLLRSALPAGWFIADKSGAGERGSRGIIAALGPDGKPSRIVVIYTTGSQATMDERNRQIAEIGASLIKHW
structure (smiles),measurement,setting,value
"O=C([O-])C1=CS[C@@H]2/C(=C\c3cn4c(n3)CCC4)C(=O)N12.[Na+] [Compound 1, (5R), (6Z)-6-(6,7-Dihydro-5H-pyrrolo[1,2-a]imidazol-2-ylmethylene)-7-oxo-4-thia-1-aza-bicyclo[3.2.0]hept-2-ene-2-carboxylic Acid, Sodium Salt]",MIC,[1],16 µg/mL
same,MIC,[2],>16 µg/mL
same,MIC,[3],2 µg/mL
same,MIC,[4]; Cefepime + 4 ug/ml Compound 1,0.06 µg/mL
same,IC50,[5],400 pM
same,MIC,[6],0.12 µg/mL
same,MIC,[7],>16 µg/mL
same,MIC,[8]; Cefepime + 4 ug/ml Compound 1,16 µg/mL
same,MIC,[9]; Cefepime + 4 ug/ml Compound 1,0.06 µg/mL
same,MIC,[10]; Cefepime + 4 ug/ml Compound 1,1 µg/mL
same,MIC,[11]; Cefepime + 4 ug/ml Compound 1,0.12 µg/mL
same,MIC,[12]; Cefepime + 4 ug/ml Compound 1,0.12 µg/mL
same,MIC,"[13]; K. pneumoniae GC 7823, Cefepime + 4 ug/ml Compound 1",0.12 µg/mL
same,MIC,[14]; Cefepime + 4 ug/ml Compound 1,0.06 µg/mL
same,MIC,[15]; Cefepime + 4 ug/ml Compound 1,0.12 µg/mL
same,MIC,[16]; Cefepime + 4 ug/ml Compound 1,8 µg/mL
same,MIC,[17]; Cefepime + 4 ug/ml Compound 1,0.12 µg/mL
same,MIC,[18]; Cefepime + 4 ug/ml Compound 1,8 µg/mL
same,MIC,[19]; Cefepime + 4 ug/ml Compound 1,0.50 µg/mL
same,MIC,[20]; Cefepime + 4 ug/ml Compound 1,0.06 µg/mL
same,MIC,"[21]; K. pneumoniae GC 7820, Cefepime + 4 ug/ml Compound 1",0.25 µg/mL
same,MIC,[22]; Cefepime + 4 ug/ml Compound 1,0.12 µg/mL
same,MIC,[23]; Cefepime + 4 ug/ml Compound 1,0.12 µg/mL
same,MIC,[24]; Cefepime + 4 ug/ml Compound 1,2 µg/mL
same,MIC,"[25]; K. pneumoniae GC 7821, Cefepime + 4 ug/ml Compound 1",0.03 µg/mL
same,MIC,[26]; Cefepime + 4 ug/ml Compound 1,0.06 µg/mL
"O=C(O)C1=CS[C@@H]2/C(=C\c3cn4c(n3)COCC4)C(=O)N12 [Compound 2, (5R), (6Z)-6-(5,6-Dihydro-8H-imidazo[2.1-c][1,4]oxazin-2-ylmethylene)-7-oxo-4-thia-1-azabicyclo[3.2.0]hept-2-ene-2-carboxylic Acid, Sodium Salt]",MIC,[4]; [27],0.06 µg/mL
same,IC50,[5],600 pM
same,MIC,"[8]; Acinetobacter baumannii, GC7687AMPC, Cefepime + 4 ug/ml Compound 2, read-out: MIC",16 µg/mL
same,MIC,"[9]; Citrobacter freundii, Cefepime + 4 ug/ml Compound 2, read-out: MIC",0.12 µg/mL
same,MIC,[10]; [28],2 µg/mL
same,MIC,[11]; [29],0.12 µg/mL
same,MIC,[12]; [29],0.12 µg/mL
same,MIC,"[13]; Klebsiella pneumoniae, GC7823FOX5, K. pneumoniae GC 7823, Cefepime + 4 ug/ml Compound 2, read-out: MIC",0.12 µg/mL
same,MIC,[14]; [27],0.06 µg/mL
same,MIC,"[15]; Klebsiella pneumoniae, GC7824FOX5, Cefepime + 4 ug/ml Compound 2, read-out: MIC",0.25 µg/mL
same,MIC,[16]; [28],8 µg/mL
same,MIC,[17]; [29],0.12 µg/mL
same,MIC,"[18]; Acinetobacter baumannii, Cefepime + 4 ug/ml Compound 2, read-out: MIC",8 µg/mL
same,MIC,[19]; [29],0.5 µg/mL
same,MIC,[20]; [30],0.06 µg/mL
same,MIC,"[21]; Klebsiella pneumoniae, GC7820ACT1, K. pneumoniae GC 7820, Cefepime + 4 ug/ml Compound 2, read-out: MIC",0.25 µg/mL
same,MIC,[22]; [30],0.12 µg/mL
same,MIC,[23]; [30],0.25 µg/mL
same,MIC,"[24]; Pseudomonas aeruginosa, ATCC27853, Cefepime + 4 ug/ml Compound 2, read-out: MIC",2 µg/mL
same,MIC,"[25]; Klebsiella pneumoniae, GC7821DHA1, K. pneumoniae GC 7821, Cefepime + 4 ug/ml Compound 2, read-out: MIC",0.03 µg/mL
same,MIC,"[26]; Klebsiella aerogenes, Cefepime + 4 ug/ml Compound 2, read-out: MIC",0.03 µg/mL
